Results on 43 molecules are retold here after PubChem BioAssay (NCI).

The structures appear in SMILES notation. Several values for one entry are separate records, joined by “and”; a condition that tells them apart may be missing. Identical values can stand only once.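 All cell lines were grown in 96-well plates and treated with compound for 48 hours. At the GI50, growth is halved. TGI: total growth inhibition.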 Some results are limits rather than exact numbers.

The test system of this assay is MDA-MB-468 breast. In words: NCI anticancer screen, dose series, 48 h.
Turning to `CCCCN(CCCC)c1ccc(C(=N)c2ccc(N(C)C)cc2)cc1`, the GI50 was 0.249 µM and the TGI is 0.966 µM.

Take `Oc1c(C(Nc2cccc3ccccc23)c2ccccc2)ccc2cccnc12` (stereo unspecified): the GI50 is 1.79 µM and the TGI came out at 4.31 µM.

For the molecule `O=C(/C=C1\C(=O)N(Cc2ccc([N+](=O)[O-])cc2)c2ccccc21)c1ccc(OCCN2CCCCC2)cc1`, the GI50 was 1.11 µM and the TGI was found to be 2.49 µM.

Consider `Oc1ccc(CSc2nnc(-c3ccncc3)n2-c2ccccc2)c2cccnc12`, for which the GI50 is 1.35 µM and the TGI came to 16.1 µM.

Take `C=CCn1c(=O)c2cnc(Nc3ccc(N4CCN(C)CC4)cc3)nc2n1-c1ccc2c(n1)[C@@](O)(CC)CC2`: the GI50 is 0.189 µM and the TGI was found to be 0.698 µM.

As to `CN1CCN(c2ccc(-c3ccc4ncc(C#N)c(Nc5ccc(F)c(Cl)c5)c4c3)cc2)CC1`, the GI50 is 0.431 µM and the TGI was determined as 2.1 µM.

Regarding `CN1CCN(CCCOc2cccc3nc(Nc4ccc(Cl)c(F)c4)ccc23)CC1`, the GI50 is 1.72 µM and the TGI came out at 3.32 µM.

In the case of `CN(Cc1cnc(N)nc1N)c1ccc(C(=O)O)cc1`, the GI50 was over 100 µM and the TGI was over 100 µM.

With `IP(CCCCCCCCCCSc1n(Cc2ccc3ccccc3c2)c(-c2ccccc2)c(-c2ccccc2)[n+]1Cc1ccc2ccccc2c1)(c1ccccc1)(c1ccccc1)c1ccccc1`, the GI50 is 0.267 µM and the TGI was found to be 0.918 µM.

Regarding `NC(C/[N+]([O-])=N/O)C(=O)O` (stereo unspecified), the GI50 was 7.31 µM and the TGI was over 500 µM.

In the case of `O=C(/C=C/c1ccccc1)c1c[nH]c2ccccc2c1=O`, the GI50 is 1.8 µM and the TGI stood at 4.41 µM.

Regarding `N#CC(C#N)=Cc1c(-c2ccccc2)[nH]c2ccccc12`, the GI50 was 0.955 µM and the TGI was 5.21 µM.

For the molecule `COc1cc2c(c(OC)c1OC)C(=O)CC(c1cccc(NC(=O)c3ccc(Br)cc3)c1)O2` (stereo unspecified), the GI50 was 1.85 µM and the TGI stood at 8.01 µM.

Turning to `COc1cc(-c2n/c(=C\c3c(O)[nH]c4ccc(Cl)cc34)cc3c2=Nc2ccccc2-3)cc(OC)c1OC`, the GI50 is 1.73 µM and the TGI stood at 4.26 µM.

Regarding `NC(=O)c1cc(-c2ccncc2)cc(-c2ccccc2)c1N`, the GI50 was 6.44 µM and the TGI is over 25 µM.

`Cc1cc(Cc2cc(C)c(O)c(C)c2)cc(C)c1O`: the GI50 is 2.55 µM and the TGI worked out at 9.75 µM.

On to `Cc1cc2nc(C(Cl)Cl)nc(-c3cccs3)n2n1`, for which the GI50 is 0.314 µM and the TGI came to 1.54 µM.

`COc1cc2ccccc2c2cc([N+](=O)[O-])oc12`: the GI50 is 1.03 µM and the TGI was determined as 2.36 µM.

For the molecule `COc1cc(/C=N/Nc2ncnc3c2cnn3C(C)C)ccc1O`, the GI50 was 9.32 µM and the TGI was 24.6 µM.

As for `Cc1cc2cccnc2c2ncccc12`, the GI50 was 2.03 µM and the TGI came out at 5.48 µM.

Consider `O=C(CCCn1c(=O)c2sc3ccccc3c2n2nnc(-c3ccccc3)c12)NCCc1cnc[nH]1`, for which the GI50 was 1.69 µM and the TGI turned out to be 3.68 µM.

Regarding `CCN(CC)C(=O)CC1=C(C)/C(=C/c2[nH]c(-c3ccc[nH]3)cc2OC)N=C1C`, the GI50 is 0.572 µM and the TGI is 17.9 µM.

With `O=C(/C=C/C12c3ccccc3C(c3ccccc31)C1C(=O)N(c3ccccc3)C(=O)C12)c1ccc(Cl)cc1` (stereo unspecified), the GI50 is 1.88 µM and the TGI was found to be 5.87 µM.

In the case of `COc1ccc(Cl)cc1Nc1nc(C(F)(F)F)ccc1C(=O)N/N=C/c1ccc([N+](=O)[O-])cc1`, the GI50 is 1.13 µM and the TGI was 3.68 µM.

`COc1cc(N2CCN(C(C)C)CC2)ccc1Nc1nc(Nc2cccc3ncccc23)c2cc[nH]c2n1`: the GI50 is 3.59 µM and the TGI is 8.84 µM.

As to `Cc1ccc(NC(=O)c2ccc(CN3CCN(C)CC3)c(C(F)(F)F)c2)cc1Oc1ccc(-c2[nH]nc3ncnc(N)c23)cc1`, the GI50 is 12.2 µM and the TGI came out at 43.9 µM.

For the molecule `C=C1C(=O)O[C@H]2[C@H]1CC/C(Cn1cc(CNCCc3c[nH]c4ccc(Cl)cc34)nn1)=C\CC[C@@]1(C)O[C@@H]21`, the GI50 is 2.19 µM and the TGI worked out at 9.19 µM.

For the molecule `COc1ccc2c(c1)[C@]1(C[C@H]1c1ccc3c(/C=C/c4ccc(CN5C[C@@H](C)O[C@@H](C)C5)cc4)n[nH]c3c1)C(=O)N2`, the GI50 is 2.99 µM and the TGI is over 92.4 µM.

With `COc1ccc(C[n+]2c3ccccc3n3c4ccc(N)cc4ccc32)c(OC)c1OC`, the GI50 is 0.275 µM and the TGI came out at 1.42 µM.

`COc1cccc(C(=O)Nc2ccc(CN3CCc4nc5cc(OC)c(OC)cc5cc43)cc2)c1`: the GI50 is 4.01 µM and the TGI came out at 31.9 µM.

Regarding `COc1ccc(-c2nn(-c3ccc(NC(=O)c4ccc(Cl)c(C(F)(F)F)c4)cc3)cc2-c2ccncc2)cc1Cl`, the GI50 is 1.6 µM and the TGI was over 100 µM.

On to `COc1cc(-c2nn(-c3ccc(NC(=O)Nc4ccc(Cl)c(Cl)c4)cc3)cc2-c2ccncc2)ccc1Cl`, for which the GI50 was 2.15 µM and the TGI came to 5.72 µM.

With `COc1cc(/C=C/C(=O)c2cc(OC)c(OC)c(OC)c2)ccc1Oc1nc(NCCO)nc(N2CCOCC2)n1`, the GI50 is 1.71 µM and the TGI amounted to 4.3 µM.

In the case of `COc1cc(NS(C)(=O)=O)ccc1Nc1c2ccccc2nc2c(C)cccc12`, the GI50 is 0.236 µM and 0.298 µM; the TGI was 0.779 µM and 1.67 µM.

With `CN(CCC#N)c1ccc(/C=C(\C#N)c2cccc(C(F)(F)F)c2)cc1`, the GI50 is 0.797 µM and the TGI was over 100 µM.

Consider `CC1=CC[C@@H]2C(C)(C)C(=O)CC[C@@]2(C)[C@@H]1COc1ccc2ccc(=O)oc2c1`, for which the GI50 is 4.83 µM and the TGI was 35.9 µM.

For `Cc1oc2nc[nH]c(=O)c2c1C(=O)/C=C/c1ccc(Cl)cc1`, the GI50 was 1.38 µM and the TGI worked out at 3.87 µM.

As for `Cn1cc(C2=C(c3c4n(c5ccccc35)CCCC4)C(=O)NC2=O)c2ccccc21`, the GI50 is 5.31 µM and the TGI is over 25 µM.

`O=C(Nc1ccc(F)cc1)c1cc(-c2ccc(F)cc2F)ccc1O`: the GI50 is 2.21 µM and the TGI turned out to be 7.48 µM.

In the case of `Cc1c(C)c2c(c(C)c1NC(=O)/C=C\C(=O)O)CCC(C)(CCCC(C)CCCC(C)CCCC(C)C)O2` (stereo unspecified), the GI50 is 1.99 µM and the TGI was determined as 3.98 µM.

With `O=[N+]([O-])c1cc([N+](=O)[O-])c(Cl)c(Cl)c1Cl`, the GI50 is 0.25 µM and the TGI was determined as 0.723 µM.

For `Cc1onc(-c2c(F)cccc2Cl)c1-c1ncc(-c2ccc(Cl)cc2)o1`, the GI50 was 3.49 µM and the TGI is over 100 µM.

For `Cc1cc(N2CCN(C)CC2)nc(NCc2cc(Nc3ccnc4cc(Cl)ccc34)ccc2F)n1`, the GI50 is 1.67 µM and the TGI was 3.59 µM.
